Assay results reported in ChEMBL document CHEMBL3102815, “Structure Guided Optimization, in Vitro Activity, and in Vivo Activity of Pan-PIM Kinase Inhibitors” (ACS Med Chem Lett, 2013).

Legend:
[1] = molecular target: T1, Serine/threonine-protein kinase pim-3 (Homo sapiens, UniProt Q86V86); assay: Inhibition of PIM3 (unknown origin)
[2] = molecular target: T2, Serine/threonine-protein kinase pim-1 (Homo sapiens, UniProt P11309)
[3] = molecular target: T3, Serine/threonine-protein kinase pim-2 (Homo sapiens, UniProt Q9P1W9)
T3 sequence (Q9P1W9 whole entry): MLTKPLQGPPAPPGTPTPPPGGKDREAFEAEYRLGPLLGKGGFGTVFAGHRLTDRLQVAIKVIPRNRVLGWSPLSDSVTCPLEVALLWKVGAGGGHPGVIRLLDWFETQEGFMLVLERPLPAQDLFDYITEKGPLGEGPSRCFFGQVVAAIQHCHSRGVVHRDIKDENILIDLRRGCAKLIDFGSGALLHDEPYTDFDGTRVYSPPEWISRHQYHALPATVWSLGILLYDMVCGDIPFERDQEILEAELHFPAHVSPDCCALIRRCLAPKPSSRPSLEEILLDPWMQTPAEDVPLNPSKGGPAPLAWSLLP

[4] = molecular target: T1, Serine/threonine-protein kinase pim-3; assay: Inhibition of PIM3 (unknown origin) using NH2-AGAGRSRHSSYPAGT-OH as substrate by Kinase-Glo assay
[5] = molecular target: T3, Serine/threonine-protein kinase pim-2; assay: Inhibition of PIM2 (unknown origin) using NH2-AGAGRSRHSSYPAGT-OH as substrate by Kinase-Glo assay
[6] = molecular target: T2, Serine/threonine-protein kinase pim-1; assay: Inhibition of PIM1 (unknown origin) using NH2-AGAGRSRHSSYPAGT-OH as substrate by Kinase-Glo assay
EOL1 = assay: Antitumor activity against human EOL-1 cells xenografted in po dosed mouse administered daily; format: functional, organism-based
[7] = molecular target: T3, Serine/threonine-protein kinase pim-2; assay: Inhibition of PIM2 (unknown origin) using Biotin-AGAGRSRHSSYPAGT-OH as substrate after 2 hrs by AlphaScreen assay
[8] = molecular target: T2, Serine/threonine-protein kinase pim-1; assay: Inhibition of PIM1 (unknown origin) using Biotin-AGAGRSRHSSYPAGT-OH as substrate after 2 hrs by AlphaScreen assay
[9] = molecular target: T1, Serine/threonine-protein kinase pim-3; assay: Inhibition of PIM3 (unknown origin) using Biotin-AGAGRSRHSSYPAGT-OH as substrate after 2 hrs by AlphaScreen assay

T2 sequence (P11309 whole entry): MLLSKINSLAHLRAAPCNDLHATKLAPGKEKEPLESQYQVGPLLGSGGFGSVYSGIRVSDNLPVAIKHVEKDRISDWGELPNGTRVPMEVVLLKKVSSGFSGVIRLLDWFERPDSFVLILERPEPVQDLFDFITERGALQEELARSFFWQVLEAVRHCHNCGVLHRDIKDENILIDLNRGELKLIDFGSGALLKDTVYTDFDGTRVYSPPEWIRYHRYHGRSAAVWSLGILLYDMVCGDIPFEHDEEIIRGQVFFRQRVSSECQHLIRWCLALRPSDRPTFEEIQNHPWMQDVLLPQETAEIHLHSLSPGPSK

SMILES | Ki [1] | Ki [2] | Ki [3] | further results
Nc1cccnc1C(=O)Nc1ccccc1N1CCCCC1 | 12000 nM | 3300 nM | > 12500 nM | –
Nc1cccc(C(=O)Nc2ccccc2N2CCCCC2)n1 | 11000 nM | 2300 nM | > 12500 nM | –
O=C(Nc1ccccc1N1CCCCC1)c1ncccc1O | > 12500 nM | 12300 nM | > 12500 nM | –
Nc1ccc(-c2ccccc2Cl)nc1C(=O)Nc1cnccc1N1CCC[C@H](N)C1 | – | – | – | Ki [4]: < 1 nM; Ki [5]: < 1 nM; Ki [6]: < 1 nM
CC(=O)Nc1nc(C(=O)Nc2cnccc2N2CCCCC2)cs1 | 220 nM | 61 nM | > 12500 nM | –
C[C@H]1CN(c2ccncc2NC(=O)c2ccc(F)c(-c3c(F)cccc3F)n2)C[C@@H](N)[C@@H]1O | – | – | – | Activity (EOL1): Dose-dependent effect
NCC(=O)N1CCN(c2ccncc2NC(=O)c2nccnc2N)CC1 | 490 nM | 122 nM | 2000 nM | –
CN1CCC(CNc2ccc3ncc(-c4cccc(OC(F)(F)F)c4)n3n2)CC1 [SGI-1776] | 24 nM | – | – | –
NCCC(=O)N1CCN(c2ccncc2NC(=O)c2nccnc2N)CC1 | 180 nM | 56 nM | 680 nM | –
CC(=O)Nc1nc(C(=O)Nc2ccccc2N2CCCCC2)cs1 | 230 nM | – | > 12500 nM | –
Nc1ccc(-c2c(F)cccc2F)nc1C(=O)Nc1cnccc1N1CCC[C@H](N)C1 | – | – | – | Ki [7]: 0.004 nM; Ki [8]: 0.002 nM; Ki [9]: 0.006 nM
O=C(Nc1ccccc1N1CCCCC1)c1cscn1 | > 12500 nM | 1800 nM | > 12500 nM | –
NCC1CCCN(c2ccncc2NC(=O)c2nccnc2N)C1 (racemic) | 50 nM | 11 nM | 700 nM | –
Nc1nccnc1C(=O)Nc1cnccc1N1CCNCC1 | 1000 nM | 810 nM | > 12500 nM | –
O=C(Nc1ccccc1N1CCCCC1)c1ncc[nH]1 | > 12500 nM | > 12500 nM | > 12500 nM | –
Nc1nccnc1C(=O)Nc1cnccc1N1CCCCC1 | 90 nM | 30 nM | 1600 nM | –
CC(=O)Nc1nc(C(=O)Nc2cnc(N)nc2N2CCCCC2)cs1 | > 12500 nM | > 12500 nM | > 12500 nM | –
CC(=O)Nc1nc(C(=O)Nc2ccncc2N2CCCCC2)cs1 | 140 nM | 59 nM | 6300 nM | –
Nc1nccnc1C(=O)Nc1ccccc1N1CCCCC1 | 1500 nM | 460 nM | 7000 nM | –
CC(=O)Nc1nc(C(=O)Nc2cncnc2N2CCCCC2)cs1 | > 12500 nM | > 12500 nM | > 12500 nM | –
CC(=O)Nc1nc(C(=O)Nc2cnc(N)cc2N2CCCCC2)cs1 | 1700 nM | 1000 nM | > 12500 nM | –

Second part, led by results:

Ki [1] | Ki [2] | Ki [3] | SMILES | further results
3 nM | 1 nM | 16 nM | Nc1nccc(-c2ccc(N)c(C(=O)Nc3cnccc3N3CCC[C@H](N)C3)n2)n1 | –
5 nM | – | 6 nM | Nc1ccc(-c2ccncc2)nc1C(=O)Nc1cnccc1N1CCC[C@H](N)C1 | Ki [6]: < 1 nM
20 nM | – | 70 nM | Nc1nccnc1C(=O)Nc1cnccc1N1CCC[C@H](N)C1 | –
15 nM | 4 nM | 122 nM | Nc1ccc(Oc2ccccc2)nc1C(=O)Nc1cnccc1N1CCC[C@H](N)C1 | –
4 nM | – | 12 nM | Nc1ccc(-c2cccnc2)nc1C(=O)Nc1cnccc1N1CCC[C@H](N)C1 | Ki [6]: < 1 nM
– | – | 8 nM | COc1ccccc1-c1ccc(N)c(C(=O)Nc2cnccc2N2CCC[C@H](N)C2)n1 | Ki [4]: < 1 nM; Ki [6]: < 1 nM
3 nM | 3 nM | 7 nM | Nc1ccc(-c2ccccc2C(F)(F)F)nc1C(=O)Nc1cnccc1N1CCC[C@H](N)C1 | –
0.007 nM | 0.002 nM | 0.006 nM | Nc1ccc(-c2c(F)cccc2F)nc1C(=O)Nc1cnccc1N1CC[C@@H](O)[C@H](N)C1 | –
3 nM | – | 6 nM | Nc1ccc(-c2ccccn2)nc1C(=O)Nc1cnccc1N1CCC[C@H](N)C1 | Ki [6]: < 1 nM
20 nM | 18 nM | 110 nM | Nc1cccnc1C(=O)Nc1cnccc1N1CCC[C@H](N)C1 | –
